{"source": "paper PMC8826081", "about": "“Three-Carbon Linked Dihydroartemisinin-Isatin Hybrids: Design, Synthesis and Their Antiproliferative Anticancer Activity” (Frontiers in Pharmacology, 2022)", "key": {"[1]": {"test_system": "A549/DOX (doxorubicin-resistant A549 cells)", "assay": "MTT antiproliferative activity against doxorubicin-resistant A549", "format": "cell-based", "conditions": "for IC50: Homo sapiens, MTT assay, doxorubicin-resistant A549 cells", "description": "(§1) 3-(4,5-dimethylthiazol-2-yl)-2,5-diphenyltetrazolium bromide (MTT) assay was used to determined the antiproliferative activity of dihydroartemisinin-isatin hybrids 5a-e and 6a-j with three-carbon linker against A549, multidrug-resistant A549/DOX and A549/DDP lung cancer cell lines as well as cytotoxicity towards normal lung epithelial cell line (BEAS-2B). The inhibitory effects were expressed in terms of half maximal inhibitory concentration (IC50) values.\n(§2) A549, A549/DOX, and A549/DDP lung cancer cells (2×10^3) were plated in each well of a 96-well plate and were allowed to adhere and spread for 24 h. The […] were added to a final concentration of 100 µM, and the cells were cultured for 24 h at 37 °C. 3-(4,5-dimethyl-2-thiazolyl)-2,5-diphenyltetrazolium bromide (MTT) solution (10 µL) was added to each well, and the cultures were incubated for an additional 4 h. A further 100 µL of […] was added and incubation continued overnight. The absorbance at 540 nm was determined in each well with a 96-well plate reader. The growth of the treated cells was compared with that of untreated cells."}, "A549 lung cancer cells": {"test_system": "A549 lung cancer cells", "assay": "MTT antiproliferative activity against A549", "format": "cell-based", "conditions": "Homo sapiens; MTT assay, drug-sensitive A549", "description": "as §1, §2"}, "[2]": {"test_system": "BEAS-2B normal lung epithelial cell line", "assay": "MTT cytotoxicity towards normal lung epithelial cells", "conditions": "IC50(BEAS-2B)/IC50(A549)", "method": "as §1\n(§3) The compounds were dissolved in DMSO with concentrations from 1024 to 1 μg/mL. The NIH/3T3 cells were maintained in culture medium at 37 °C under 5% CO2 atmosphere. Cells were seeded in 96-well plates (1×10^4 cell per well) and allowed to recover for 24 h. After 72 h of exposure, cells were harvested and cell viability was assessed by MTT assay. The CC50 values were calculated by Bliss analysis."}, "in vitro": {"assay": "in vitro", "conditions": "human", "method": "as §1, §3"}, "[3]": {"test_system": "A549/DDP (cisplatin-resistant A549 cells)", "assay": "MTT antiproliferative activity against cisplatin-resistant A549", "format": "cell-based", "conditions": "for IC50: Homo sapiens, MTT assay, cisplatin-resistant A549 cells", "description": "as §1, §2"}, "[4]": {"assay": "Metabolic stability in mouse liver microsomes", "format": "in vitro ADME", "conditions": "in vitro stability"}, "[5]": {"assay": "Metabolic stability in human liver microsomes", "format": "in vitro ADME", "conditions": "in vitro stability"}, "[6]": {"assay": "Pharmacokinetic properties in CD-1 mice", "format": "in vivo", "conditions": "mouse, plasma; for bioavailability: 30 mg/kg, read-out: F (bioavailability); for AUC / Cmax / clearance / half-life / Tmax: single intravenous dose of 30 mg/kg; for Tmax: read-out: tmax (peak time) (converted)", "method": "CD-1 mice model was administered with single intravenous […]) dose of 30 mg/kg to test the pharmacokinetic properties of hybrid 6a, e.\nCD-1 mice mice (20-25 g) were used in the pharmacokinetic study, and each treatment group had 3 mice which were dosed with […] suspension at 30 mg/kg by single intravenous (iv) administration. Compounds were suspended in 0.5% CMC for iv, and blood was collected from the jugular vein of each mouse at the following time points: 0.25, 0.5, 1, 2, 4, 6, 8 and 24 h after […] administration. Total area under the concentration time curve (AUC), the elimination half-time (t1/2), the peak concentration (Cmax) and the time to reach peak concentration (Tmax) of samples were determined directly from the experimental data using WinNonlin V6.2.1."}, "[7]": {"test_system": "A549, A549/DOX and A549/DDP lung cancer cell lines", "assay": "MTT antiproliferative activity, summarised over the three lung cancer cell lines", "format": "cell-based", "conditions": "for IC50: MTT assay, span of values over the three lung cancer cell lines, read-out: IC50 (range over A549, A549/DOX and A549/DDP); for times superior to cisplatin and doxorubicin: against multidrug-resistant A549/DOX and A549/DDP; for RI (drug resistance index: IC50(MDR A549)/IC50(A549)): span over RI1 and RI2", "description": "as §1, §2"}}}
{"smiles": "C[C@@H]1CC[C@H]2[C@@H](C)C(OCCCN3C(=O)C(=NO)c4ccccc43)O[C@@H]3O[C@@]4(C)CC[C@@H]1[C@]32OO4", "note": "(stereo partly drawn) [6a, 3-(hydroxyimino)-1-(3-(((3R,5aS,6R,8aS,9R,12R,12aR)-3,6,9-trimethyldecahydro-12H-3,12-epoxy[1,2]dioxepino[4,3-i]isochromen-10-yl)oxy)propyl)indolin-2-one]", "values": [{"measurement": "IC50", "setting": "[1]", "value": 7.35, "unit": "µM"}, {"measurement": "RI1 (Resistance index: IC50(A549/DOX)/IC50(A549))", "setting": "[1]", "value": 1.28}, {"measurement": "IC50", "setting": "A549 lung cancer cells", "value": 5.72, "unit": "µM"}, {"measurement": "SI (Selectivity index: IC50(BEAS-2B)/IC50(A549))", "setting": "[2]", "value": ">17.4"}, {"measurement": "IC50", "setting": "in vitro", "value": "> 100", "unit": "µM"}, {"measurement": "IC50", "setting": "[3]", "value": 9.84, "unit": "µM"}, {"measurement": "Liver microsomes Mouse", "setting": "[4]", "value": 70, "unit": "%"}, {"measurement": "Liver microsomes Human", "setting": "[5]", "value": 62, "unit": "%"}, {"measurement": "bioavailability", "setting": "[6]", "value": 39.7, "unit": "%"}, {"measurement": "AUC", "setting": "[6]", "value": 2350, "unit": "ng·h/mL"}, {"measurement": "Cmax", "setting": "[6]", "value": 18.9, "unit": "µM"}, {"measurement": "clearance", "setting": "[6]", "value": 62.3, "unit": "mL/min/kg"}, {"measurement": "half-life", "setting": "[6]", "value": 3.1, "unit": "h"}, {"measurement": "Tmax", "setting": "[6]", "value": 0.267, "unit": "h"}, {"measurement": "IC50", "setting": "[7]", "value": "5.72 to 9.84", "unit": "µM"}, {"measurement": "times superior to cisplatin and doxorubicin", "setting": "[7]", "value": "1.5–10.8 times"}, {"measurement": "RI (drug resistance index: IC50(MDR A549)/IC50(A549))", "setting": "[7]", "value": "1.03–1.66"}]}
{"smiles": "C[C@@H]1CC[C@H]2[C@@H](C)C(OCCCN3C(=O)C(=NNC(N)=S)c4cc(F)ccc43)O[C@@H]3O[C@@]4(C)CC[C@@H]1[C@]32OO4", "note": "(stereo partly drawn) [6e, 2-(5-fluoro-2-oxo-1-(3-(((3R,5aS,6R,8aS,9R,12R,12aR)-3,6,9-trimethyldecahydro-12H-3,12-epoxy[1,2]dioxepino[4,3-i]isochromen-10-yl)oxy)propyl)indolin-3-ylidene)hydrazine-1-carbothioamide]", "values": [{"measurement": "IC50", "setting": "[1]", "value": 8.93, "unit": "µM"}, {"measurement": "RI1 (Resistance index: IC50(A549/DOX)/IC50(A549))", "setting": "[1]", "value": 1.49}, {"measurement": "IC50", "setting": "A549 lung cancer cells", "value": 5.99, "unit": "µM"}, {"measurement": "SI (Selectivity index: IC50(BEAS-2B)/IC50(A549))", "setting": "[2]", "value": ">16.6"}, {"measurement": "IC50", "setting": "in vitro", "value": "> 100", "unit": "µM"}, {"measurement": "IC50", "setting": "[3]", "value": 6.17, "unit": "µM"}, {"measurement": "RI2 (Resistance index: IC50(A549/DDP)/IC50(A549))", "setting": "[3]; IC50(A549/DDP)/IC50(A549)", "value": 1.03}, {"measurement": "Liver microsomes Mouse", "setting": "[4]", "value": 54, "unit": "%"}, {"measurement": "Liver microsomes Human", "setting": "[5]", "value": 51, "unit": "%"}, {"measurement": "bioavailability", "setting": "[6]", "value": 30.8, "unit": "%"}, {"measurement": "AUC", "setting": "[6]", "value": 1670, "unit": "ng·h/mL"}, {"measurement": "Cmax", "setting": "[6]", "value": 10.7, "unit": "µM"}, {"measurement": "clearance", "setting": "[6]", "value": 44.8, "unit": "mL/min/kg"}, {"measurement": "half-life", "setting": "[6]", "value": 4.7, "unit": "h"}, {"measurement": "Tmax", "setting": "[6]", "value": 0.2, "unit": "h"}, {"measurement": "IC50", "setting": "[7]", "value": "5.72 to 9.84", "unit": "µM"}, {"measurement": "times superior to cisplatin and doxorubicin", "setting": "[7]", "value": "1.5–10.8 times"}, {"measurement": "RI (drug resistance index: IC50(MDR A549)/IC50(A549))", "setting": "[7]", "value": "1.03–1.66"}]}
